For one data set, the target named is T1, sLFA-1/ICAM-1 (Homo sapiens, UniProt P05107+P20701).
T1 construct: 2.0 ug/ml solution of sLFA-1 or Mac-1 receptor
The data set can be described thus: sLFA-1/ICAM-1 ELISA (LFA1 Adhesion Assay). The format is binding. The protocol:
The following assay was conducted to assess effect of targeted molecules on the sLFA-1/ICAM-1 ELISA and Mac-1/ICAM-1 interactions.
Plates were coated with either 50 μl/well of 2.0 ug/ml solution of sLFA-1 or Mac-1 receptor in divalent cation buffer (1 mM MnCI2, 0.14M NaCl, 20 mM HEPES pH 7.2) at 4° C. overnight. Two hundred fifty μl of blocking buffer (1% BSA in divalent cation buffer) was added to each well 1 hour at 37° C. Plates were washed 3 times with wash buffer (TBS/0.05% Tween-20/1 mM MnCl2). The compound to be tested was solubilized in DMSO. […] Fifty μl of binding buffer (0.5% BSA in divalent cation buffer)/1% DMSO and 50 μl of the solutions to be tested were added to the appropriate wells and incubated for 1 hour. Fifty μl of 5dICAM-Fc (27 ng/ml) was added to the appropriate wells and 50 μl binding buffer was added to non-specific binding wells and incubated for 2 hours and washed. One hundred μl of 1:4000 HRP-goat anti-huIgG was added to each well and incubated for 1 hour and washed. One hundred μl of 1:1 TMB solution was added to each well and developed for 20 min at room temperature. Color development was stopped by adding 100 μl H3PO4 to each well. Absorbance was measured at 450 nm.
For orientation: In an ELISA, binding on a coated surface is turned into a signal by an enzyme label.

The next data set concerns Jurkat Cells/VCAM-1. Kind of data set: Jurkat Cells/VCAM-1 Adhesion Assay. Type of data set: cell-based. The settings on record: Table 4.
A further data set concerns AHA1 mRNA. Kind of data set: Knock-down of AHA1 mRNA by 5′-sense strand modified siRNA (Branched DNA Assay). The format is cell-based. The settings on record: H1299 cells, siRNA 50 nM, DharmaFect-1 reverse transfection, 48 hours. The protocol:
Assay of 5′-Sense Strand Modified siRNA for Knock-Down of AHA1 mRNA in Cellular Systems
Reference gene: GAPDH Cell line: H1299_Nut-One Plating density: 5,000 cells/well Plating format: 96-well Time from plating to treatment: 0 Control treatment: mock, untreated, control siRNA Transfection reagent: DharmaFectl
TF Reagent volume/well […] siRNA final concentration 50 nM Assay method: Day 1 manual/Day 2 Washer
Reverse transfection: H1299 cells were transfected with indicated siRNA at final concentration of 50 nM using DharmaFect-1 transfection reagent at 0.15 μl/well. Cells were then plated into 96-well plate at 5000 cells/well and incubated at 37° C. for 48 hours.
The efficacy of siRNA knock-down was measured with a Branched DNA Assay as reported by the vendor; the results of such knockdown are shown in FIG. 5. The relative cell viability was assessed by the absolute expression of GAPDH in the same well (FIG. 6).

[1] abbreviates: Table 4, read-out: LFA1 Adhesion Assay.
Where [2] appears, read: control compounds, read-out: IC50.

Where two headings read alike, the source gives them in different places.

T1 sequence (P20701 26-1090 limits assumed): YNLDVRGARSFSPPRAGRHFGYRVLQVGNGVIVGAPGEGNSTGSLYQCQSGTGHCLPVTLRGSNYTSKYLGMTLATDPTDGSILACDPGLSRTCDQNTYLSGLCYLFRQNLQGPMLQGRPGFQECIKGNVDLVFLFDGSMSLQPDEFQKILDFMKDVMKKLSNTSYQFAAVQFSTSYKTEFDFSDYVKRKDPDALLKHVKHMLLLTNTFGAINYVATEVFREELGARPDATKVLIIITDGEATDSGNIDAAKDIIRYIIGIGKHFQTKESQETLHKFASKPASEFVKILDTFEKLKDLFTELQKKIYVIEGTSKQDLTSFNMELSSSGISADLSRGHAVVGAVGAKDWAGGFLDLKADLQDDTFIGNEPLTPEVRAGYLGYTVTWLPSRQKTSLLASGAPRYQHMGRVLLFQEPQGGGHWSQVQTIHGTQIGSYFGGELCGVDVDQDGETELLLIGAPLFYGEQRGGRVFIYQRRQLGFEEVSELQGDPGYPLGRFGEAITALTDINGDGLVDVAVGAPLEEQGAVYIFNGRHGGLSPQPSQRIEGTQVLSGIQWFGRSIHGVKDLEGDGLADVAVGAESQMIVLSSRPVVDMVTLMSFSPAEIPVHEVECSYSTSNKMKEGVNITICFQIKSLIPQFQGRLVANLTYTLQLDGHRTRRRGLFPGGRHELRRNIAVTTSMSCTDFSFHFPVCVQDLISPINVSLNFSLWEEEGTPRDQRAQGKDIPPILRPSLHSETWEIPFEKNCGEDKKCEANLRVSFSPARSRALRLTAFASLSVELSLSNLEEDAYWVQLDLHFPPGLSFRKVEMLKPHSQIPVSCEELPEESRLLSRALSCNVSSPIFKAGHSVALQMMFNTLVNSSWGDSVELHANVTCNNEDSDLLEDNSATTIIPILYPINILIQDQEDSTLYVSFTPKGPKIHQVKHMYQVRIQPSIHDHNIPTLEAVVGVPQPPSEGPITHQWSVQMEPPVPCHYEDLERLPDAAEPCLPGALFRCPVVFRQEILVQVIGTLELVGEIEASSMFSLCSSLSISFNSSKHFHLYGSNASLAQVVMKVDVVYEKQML
T1 sequence (P05107 23-700 limits assumed): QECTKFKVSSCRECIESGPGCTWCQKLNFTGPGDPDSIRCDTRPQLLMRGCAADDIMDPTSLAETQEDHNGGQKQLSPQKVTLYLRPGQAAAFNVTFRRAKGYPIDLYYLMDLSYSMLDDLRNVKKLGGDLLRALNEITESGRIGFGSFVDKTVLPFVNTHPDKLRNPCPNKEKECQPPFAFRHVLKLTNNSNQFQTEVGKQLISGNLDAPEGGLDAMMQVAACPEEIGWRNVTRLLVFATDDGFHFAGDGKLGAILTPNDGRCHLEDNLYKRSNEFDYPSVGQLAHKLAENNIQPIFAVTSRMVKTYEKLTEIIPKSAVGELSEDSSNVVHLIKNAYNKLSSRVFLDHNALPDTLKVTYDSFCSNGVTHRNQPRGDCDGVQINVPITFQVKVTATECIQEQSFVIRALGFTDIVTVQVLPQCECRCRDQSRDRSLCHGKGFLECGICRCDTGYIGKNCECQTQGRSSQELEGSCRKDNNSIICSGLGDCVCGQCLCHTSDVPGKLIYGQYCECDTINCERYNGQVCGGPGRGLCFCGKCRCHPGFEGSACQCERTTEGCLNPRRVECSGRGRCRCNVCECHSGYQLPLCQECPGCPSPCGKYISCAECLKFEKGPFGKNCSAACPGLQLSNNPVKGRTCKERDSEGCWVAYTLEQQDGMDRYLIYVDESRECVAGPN

For `Cc1cc(C(=O)NCc2cccc(Cl)c2)cc(C)c1C(=O)N[C@@H](CNC(=O)c1cccs1)C(=O)O` [compound 142], the IC50 was 37 nM at sLFA-1/ICAM-1 (setting [1]); 74 nM on sLFA-1/ICAM-1 (Table 5, read-out: LFA1 Adhesion Assay (IC50 nM)); approximately 37 nM on sLFA-1/ICAM-1 (setting [2]).

For `O=C(NCc1cccc(O)c1)c1cc(Cl)c(C(=O)N[C@@H](CNC(=O)c2cc(O)cc(O)c2)C(=O)O)c(Cl)c1` [compound 143], the IC50 on sLFA-1/ICAM-1 (setting [1]) is 11 nM; on sLFA-1/ICAM-1 (setting [2]), approximately 11 nM.

Turning to “Duplex-1: AHA1 siRNA duplex without targeting element: Sense-1 GGAuGAAGuGGAGAuuAGudTsdT, Antisense-1 ACuAAUCUCcACUUcAUCCdTsdT (sense GGAUGAAGUGGAGAUUAGUTT; antisense ACUAAUCUCCACUUCAUCCTT; lowercase nucleotides modified, meaning not given here, dTsdT 3' overhang)”, in the data set with Jurkat Cells/VCAM-1, the IC50 was more than 200 nM. Also, in the data set on AHA1 mRNA, the “AHA1 % KD” value turned out to be 98%.
